Assay results: ChEMBL document CHEMBL5465560, “Selectivity Literature for EUbOPEN Chemogenomic Library” (2024)
Where a chain is given by its changes, count along the chain named.

Legend:
[1] = molecular target: Serine/threonine-protein kinase OSR1 (Homo sapiens) (UniProt O95747); assay: Selectivity interaction (KinomeScan (DiscoverX)) EUB0000229b OXSR1; conditions: at 10 µM
[2] = tested on: T1, Receptor-type tyrosine-protein kinase FLT3 (Homo sapiens), P36888 [N841I]; assay: (§1) Selectivity interaction (KinomeScan (DiscoverX)) EUB0000695a FLT3; conditions: at 100 nM
T1 sequence (whole entry): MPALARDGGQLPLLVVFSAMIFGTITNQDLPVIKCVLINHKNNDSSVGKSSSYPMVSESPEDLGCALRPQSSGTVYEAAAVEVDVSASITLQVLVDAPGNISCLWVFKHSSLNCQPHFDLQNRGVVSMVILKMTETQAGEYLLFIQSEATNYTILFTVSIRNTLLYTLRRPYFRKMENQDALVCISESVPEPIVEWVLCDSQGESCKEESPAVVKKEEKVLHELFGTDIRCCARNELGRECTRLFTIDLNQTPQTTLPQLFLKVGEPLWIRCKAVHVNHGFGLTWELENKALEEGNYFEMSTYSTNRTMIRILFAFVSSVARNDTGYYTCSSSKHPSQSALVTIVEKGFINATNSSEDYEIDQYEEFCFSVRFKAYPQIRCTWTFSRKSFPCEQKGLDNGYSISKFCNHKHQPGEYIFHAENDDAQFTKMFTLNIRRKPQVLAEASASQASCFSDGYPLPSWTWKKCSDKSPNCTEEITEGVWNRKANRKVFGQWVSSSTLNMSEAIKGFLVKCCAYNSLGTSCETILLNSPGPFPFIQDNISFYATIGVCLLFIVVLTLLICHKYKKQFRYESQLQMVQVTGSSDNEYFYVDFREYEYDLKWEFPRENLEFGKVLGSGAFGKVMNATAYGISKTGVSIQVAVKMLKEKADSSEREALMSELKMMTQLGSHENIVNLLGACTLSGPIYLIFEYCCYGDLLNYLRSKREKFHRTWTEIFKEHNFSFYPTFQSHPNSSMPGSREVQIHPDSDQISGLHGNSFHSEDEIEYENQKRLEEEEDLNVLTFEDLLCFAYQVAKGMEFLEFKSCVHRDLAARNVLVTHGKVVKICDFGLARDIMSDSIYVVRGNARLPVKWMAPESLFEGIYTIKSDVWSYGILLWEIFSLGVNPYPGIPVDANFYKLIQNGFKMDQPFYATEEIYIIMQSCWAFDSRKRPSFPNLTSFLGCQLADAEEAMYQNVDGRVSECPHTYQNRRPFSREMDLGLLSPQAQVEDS

[3] = tested on: T2, Receptor-type tyrosine-protein kinase FLT3 (Homo sapiens), P36888 [D835Y]; assay: as §1; conditions: at 100 nM
T2 sequence (whole entry): T1 sequence (whole entry) with D835Y, I841N

[4] = tested on: T3, Receptor-type tyrosine-protein kinase FLT3 (Homo sapiens), P36888 [R834Q]; assay: as §1; conditions: at 100 nM
T3 sequence (whole entry): T1 sequence (whole entry) with R834Q, I841N

[5] = molecular target: Receptor-type tyrosine-protein kinase FLT3 (Homo sapiens) (UniProt P36888); assay: as §1; conditions: at 100 nM

Sequence of Serine/threonine-protein kinase OSR1 (Homo sapiens) (O95747 2-527 limits assumed): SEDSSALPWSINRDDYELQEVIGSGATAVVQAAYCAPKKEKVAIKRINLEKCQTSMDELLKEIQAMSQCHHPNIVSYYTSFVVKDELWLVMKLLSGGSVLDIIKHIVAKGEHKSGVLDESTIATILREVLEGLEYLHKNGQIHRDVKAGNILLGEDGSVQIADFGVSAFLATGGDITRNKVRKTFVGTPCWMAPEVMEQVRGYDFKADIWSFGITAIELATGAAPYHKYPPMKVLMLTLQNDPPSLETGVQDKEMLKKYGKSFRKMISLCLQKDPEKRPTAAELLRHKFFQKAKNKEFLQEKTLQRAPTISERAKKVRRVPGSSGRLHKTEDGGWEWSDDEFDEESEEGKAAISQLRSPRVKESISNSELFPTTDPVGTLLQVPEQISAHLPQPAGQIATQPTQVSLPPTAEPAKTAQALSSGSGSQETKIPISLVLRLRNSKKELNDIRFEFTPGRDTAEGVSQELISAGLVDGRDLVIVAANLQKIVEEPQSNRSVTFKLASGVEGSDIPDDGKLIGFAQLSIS

| Compound | % binding [1] | % of control [2] | % of control [3] | % of control [4] | % of control [5] |
| --- | --- | --- | --- | --- | --- |
| COc1cc(N(C)c2ccnc3ccc(C(F)(F)F)cc23)cc(OC)c1OC | 79% |  |  |  |  |
| Cc1cc(F)c(C(=O)Nc2cccc(-c3nncn3C(C)C)n2)cc1-n1cnc(C2CC2)c1 |  | 93% | 100% | 100% | 100% |
